Data taken from patent publication US11053218B2, “3-(1-oxoisoindolin-2-yl)piperidine-2,6-dione derivatives and uses thereof” (Novartis AG, priority 2017, dated 2021).
Counter-ions that a name gives are not always drawn. Like-named read-outs stand apart in the source and are kept apart here.

Columns and labels:
IKZF1 = IKZF1 (Homo sapiens, UniProt Q13422+Q96SW2); assay: Prolabel quantification of IKZF1 protein levels in 293GT cells; type: cell-based; details: Prolabel assay, read-out: IKZF1 EC50
IKZF1, sequence (Q13422 whole entry): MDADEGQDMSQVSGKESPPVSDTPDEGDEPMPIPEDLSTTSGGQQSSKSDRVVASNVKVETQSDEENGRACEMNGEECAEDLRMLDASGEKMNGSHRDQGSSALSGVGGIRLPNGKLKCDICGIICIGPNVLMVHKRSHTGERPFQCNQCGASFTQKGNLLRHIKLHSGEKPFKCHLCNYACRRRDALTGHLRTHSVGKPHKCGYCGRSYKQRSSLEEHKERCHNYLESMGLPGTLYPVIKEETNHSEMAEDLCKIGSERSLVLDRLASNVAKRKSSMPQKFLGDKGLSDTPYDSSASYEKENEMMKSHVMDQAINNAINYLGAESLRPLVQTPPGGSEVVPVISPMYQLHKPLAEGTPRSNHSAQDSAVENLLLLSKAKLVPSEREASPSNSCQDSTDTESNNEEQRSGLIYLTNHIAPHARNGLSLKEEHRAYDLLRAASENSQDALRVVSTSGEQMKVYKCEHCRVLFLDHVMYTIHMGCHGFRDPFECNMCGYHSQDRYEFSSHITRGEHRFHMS
IKZF1, sequence (Q96SW2 whole entry): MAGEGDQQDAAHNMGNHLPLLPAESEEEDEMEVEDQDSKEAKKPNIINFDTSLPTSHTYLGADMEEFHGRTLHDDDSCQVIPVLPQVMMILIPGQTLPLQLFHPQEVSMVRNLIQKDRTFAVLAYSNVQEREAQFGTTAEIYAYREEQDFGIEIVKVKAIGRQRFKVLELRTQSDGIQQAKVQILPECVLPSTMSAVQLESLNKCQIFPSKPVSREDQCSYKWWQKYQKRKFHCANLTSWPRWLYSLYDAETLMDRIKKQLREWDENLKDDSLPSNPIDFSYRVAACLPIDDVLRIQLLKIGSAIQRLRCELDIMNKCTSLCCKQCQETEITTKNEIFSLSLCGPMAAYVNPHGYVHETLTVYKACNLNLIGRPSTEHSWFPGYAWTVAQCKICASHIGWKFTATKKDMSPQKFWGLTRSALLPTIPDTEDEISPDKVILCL
IKZF1, sequence (Q16531 whole entry partner): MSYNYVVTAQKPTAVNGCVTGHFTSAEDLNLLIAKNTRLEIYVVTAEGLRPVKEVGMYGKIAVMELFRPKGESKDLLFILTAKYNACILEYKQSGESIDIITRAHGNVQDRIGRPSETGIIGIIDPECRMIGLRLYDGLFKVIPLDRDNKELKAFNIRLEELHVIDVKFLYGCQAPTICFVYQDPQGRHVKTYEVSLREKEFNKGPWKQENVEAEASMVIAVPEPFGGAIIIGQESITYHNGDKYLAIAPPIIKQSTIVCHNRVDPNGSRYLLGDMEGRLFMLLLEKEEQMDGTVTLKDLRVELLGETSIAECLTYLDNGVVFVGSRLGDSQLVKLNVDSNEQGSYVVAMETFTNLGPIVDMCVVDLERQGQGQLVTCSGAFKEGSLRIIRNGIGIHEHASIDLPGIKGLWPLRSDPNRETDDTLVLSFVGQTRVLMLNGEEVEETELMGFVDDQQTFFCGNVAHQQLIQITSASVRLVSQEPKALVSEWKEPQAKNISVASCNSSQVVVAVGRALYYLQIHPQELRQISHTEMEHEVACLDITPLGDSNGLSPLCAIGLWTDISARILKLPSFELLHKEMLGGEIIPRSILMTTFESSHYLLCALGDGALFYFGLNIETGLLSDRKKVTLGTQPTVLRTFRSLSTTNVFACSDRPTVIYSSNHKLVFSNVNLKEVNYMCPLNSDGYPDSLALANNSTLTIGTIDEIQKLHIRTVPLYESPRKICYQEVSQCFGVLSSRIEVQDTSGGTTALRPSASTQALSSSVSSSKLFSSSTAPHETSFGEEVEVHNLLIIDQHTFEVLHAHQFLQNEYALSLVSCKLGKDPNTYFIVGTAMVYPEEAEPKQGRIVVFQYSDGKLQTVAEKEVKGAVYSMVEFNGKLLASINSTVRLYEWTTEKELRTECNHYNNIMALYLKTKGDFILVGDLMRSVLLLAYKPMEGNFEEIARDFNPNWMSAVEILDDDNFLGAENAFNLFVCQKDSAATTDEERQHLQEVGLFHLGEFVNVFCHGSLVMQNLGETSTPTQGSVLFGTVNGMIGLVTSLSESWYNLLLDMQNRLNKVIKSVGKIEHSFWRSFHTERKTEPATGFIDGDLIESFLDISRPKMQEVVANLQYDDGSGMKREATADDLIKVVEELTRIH

IKZF2 = IKZF2 (Homo sapiens, UniProt Q96SW2+Q9UKS7); assay: Prolabel quantification of IKZF2 protein levels in 293GT cells; type: cell-based
IKZF2, sequence (Q9UKS7 whole entry): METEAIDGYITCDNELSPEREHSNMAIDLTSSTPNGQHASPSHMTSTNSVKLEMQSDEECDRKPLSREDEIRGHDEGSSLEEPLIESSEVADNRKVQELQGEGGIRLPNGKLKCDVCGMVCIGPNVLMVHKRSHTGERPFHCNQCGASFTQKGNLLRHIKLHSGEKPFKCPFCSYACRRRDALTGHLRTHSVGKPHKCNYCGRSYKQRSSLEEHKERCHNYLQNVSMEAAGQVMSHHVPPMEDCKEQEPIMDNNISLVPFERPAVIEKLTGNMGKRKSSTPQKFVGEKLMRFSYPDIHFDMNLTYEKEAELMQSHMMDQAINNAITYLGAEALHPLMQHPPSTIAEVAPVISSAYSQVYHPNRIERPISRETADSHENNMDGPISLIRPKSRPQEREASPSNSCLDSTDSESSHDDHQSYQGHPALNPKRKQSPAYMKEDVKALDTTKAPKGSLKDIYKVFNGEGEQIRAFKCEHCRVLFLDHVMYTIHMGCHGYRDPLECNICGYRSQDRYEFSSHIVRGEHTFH
IKZF2, sequence (Q96SW2 whole entry): as the sequence (Q96SW2 whole entry) above
IKZF2, sequence (Q16531 whole entry partner): as the sequence (Q16531 whole entry partner) above

[1] = 24 h, 10 μM, 24 h, 293GT cells; read-out: IKZF2 % protein reduction at 10 μM, 24 h
[2] = Prolabel assay, 293GT cells; read-out: IKZF2 EC50
[3] = 10 μM, 24 h, 293GT cells; read-out: IKZF2 % protein reduction at 10 μM, 24 h

DC50 (IKZF1) [nM]	inhibition at 10 µM (IKZF2; [1]) [%]	DC50 (IKZF2; [2]) [nM]	IKZF2 protein levels as compared to the control (DMSO) (IKZF2; Prolabel assay in HEK293GT cells, bar graph)	SMILES	inhibition at 10 µM (IKZF2; [3]) [%]
> 30000	80	19		O=C1CCC(N2Cc3cc(C4CCN(Cc5ccc6cc[nH]c6n5)CC4)ccc3C2=O)C(=O)N1 (stereo not shown) [Compound I-140, 3-(5-(1-((1H-pyrrolo[2,3-b]pyridin-6-yl)methyl)piperidin-4-yl)-1-oxoisoindolin-2-yl)piperidine-2,6-dione]	
> 30000	80	9		O=C1CCC(N2Cc3cc(C4CCN(Cc5ccc6c(c5)NCCS6)CC4)ccc3C2=O)C(=O)N1 (stereo not shown) [Compound I-141, 3-(5-(1-((3,4-dihydro-2H-benzo[b][1,4]thiazin-6-yl)methyl)piperidin-4-yl)-1-oxoisoindolin-2-yl)piperidine-2,6-dione]	
> 30000	60	170		O=C1CCC(N2Cc3cc(C4CCN(Cc5cc(C6CC6)[nH]n5)CC4)ccc3C2=O)C(=O)N1 (stereo not shown) [Compound I-146, 3-(5-(1-((5-cyclopropyl-1H-pyrazol-3-yl)methyl)piperidin-4-yl)-1-oxoisoindolin-2-yl)piperidine-2,6-dione]	
> 30000	70	39		O=C1CCC(N2Cc3cc(C4CCN(Cc5c[nH]nc5-c5ccccc5)CC4)ccc3C2=O)C(=O)N1 (stereo not shown) [Compound I-148, 3-(1-oxo-5-(1-((3-phenyl-1H-pyrazol-4-yl)methyl)piperidin-4-yl)isoindolin-2-yl)piperidine-2,6-dione]	
> 30000	60	95		O=C1CCC(N2Cc3cc(C4CCN(Cc5c[nH]nc5-c5cccnc5)CC4)ccc3C2=O)C(=O)N1 (stereo not shown) [Compound I-151, 3-(1-oxo-5-(1-((3-(pyridin-3-yl)-1H-pyrazol-4-yl)methyl)piperidin-4-yl)isoindolin-2-yl)piperidine-2,6-dione]	
> 50000	50	5		O=C1CCC(N2Cc3cc(C4CCN(Cc5ccc6c(c5)CCCC6)CC4)ccc3C2=O)C(=O)N1 (stereo not shown) [Compound I-175, 3-(1-oxo-5-(1-((5,6,7,8-tetrahydronaphthalen-2-yl)methyl)piperidin-4-yl)isoindolin-2-yl)piperidine-2,6-dione]	
> 30000	40	67		O=C1CCC(N2Cc3cc(C4CCN(CCC(F)(F)F)CC4)ccc3C2=O)C(=O)N1 (stereo not shown) [Compound I-179, 3-(1-oxo-5-(1-(3,3,3-trifluoropropyl)piperidin-4-yl)isoindolin-2-yl)piperidine-2,6-dione]	
> 30000	20	> 30000		CC1(C)CN(Cc2ccccc2)CCC1c1ccc2c(c1)CN(C1CCC(=O)NC1=O)C2=O (stereo not shown) [Compound I-185, 3-(5-(1-benzyl-3,3-dimethylpiperidin-4-yl)-1-oxoisoindolin-2-yl)piperidine-2,6-dione]	
> 30000	50	67		CC1CN(Cc2ccccc2)CCC1c1ccc2c(c1)CN(C1CCC(=O)NC1=O)C2=O (stereo not shown) [Compound I-187, 3-(5-(1-benzyl-3-methylpiperidin-4-yl)-1-oxoisoindolin-2-yl)piperidine-2,6-dione]	
> 30000	10	4200		O=C1CCC(N2Cc3cc(C4=CCN(Cc5ccccc5)C4)ccc3C2=O)C(=O)N1 (stereo not shown) [Compound I-191, 3-(5-(1-benzyl-2,5-dihydro-1H-pyrrol-3-yl)-1-oxoisoindolin-2-yl)piperidine-2,6-dione]	
> 30000	35	67		O=C1CCC(N2Cc3cc(C4CCN(Cc5nc6ccccc6s5)CC4)ccc3C2=O)C(=O)N1 (stereo not shown) [Compound I-200, 3-(5-(1-(benzo[d]thiazol-2-ylmethyl)piperidin-4-yl)-1-oxoisoindolin-2-yl)piperidine-2,6-dione]	
> 30000	75	33		O=C1CCC(N2Cc3cc(C4CCN(Cc5cc(-c6ccccn6)n[nH]5)CC4)ccc3C2=O)C(=O)N1 (stereo not shown) [Compound I-201, 3-(1-oxo-5-(1-((3-(pyridin-2-yl)-1H-pyrazol-5-yl)methyl)piperidin-4-yl)isoindolin-2-yl)piperidine-2,6-dione]	
> 50000	0	> 50000		O=C1CCC(N2Cc3cc(C4CCN(Cc5ncon5)CC4)ccc3C2=O)C(=O)N1 (stereo not shown) [Compound I-204, 3-(5-(1-((1,2,4-oxadiazol-3-yl)methyl)piperidin-4-yl)-1-oxoisoindolin-2-yl)piperidine-2,6-dione]	
> 30000	60	1500		Cc1cc2nc(CN3CCC(c4ccc5c(c4)CN(C4CCC(=O)NC4=O)C5=O)CC3)cc(O)n2n1 (stereo not shown) [Compound I-208, 3-(5-(1-((7-hydroxy-2-methylpyrazolo[1,5-a]pyrimidin-5-yl)methyl)piperidin-4-yl)-1-oxoisoindolin-2-yl)piperidine-2,6-dione]	
> 30000	40	140		O=C1CCC(N2Cc3cc(C4CCN(C(c5ccccc5)C(F)F)CC4)ccc3C2=O)C(=O)N1 (stereo not shown) [Compound I-209, 3-(5-(1-(2,2-difluoro-1-phenylethyl)piperidin-4-yl)-1-oxoisoindolin-2-yl)piperidine-2,6-dione]	
> 30000	60	49		O=C1CCC(N2Cc3cc(C4CCN(C(CF)c5ccccc5)CC4)ccc3C2=O)C(=O)N1 (stereo not shown) [Compound I-212, 3-(5-(1-(2-fluoro-1-phenylethyl)piperidin-4-yl)-1-oxoisoindolin-2-yl)piperidine-2,6-dione]	
> 30000	50	19		O=C1CCC(N2Cc3cc(C4CCN(Cc5cc(C(F)(F)F)cc(C(F)(F)F)c5)CC4)ccc3C2=O)C(=O)N1 (stereo not shown) [Compound I-215, 3-(5-(1-(3,5-bis(trifluoromethyl)benzyl)piperidin-4-yl)-1-oxoisoindolin-2-yl)piperidine-2,6-dione]	
> 30000	40	8		N#Cc1cccc(CN2CCC(c3ccc4c(c3)CN(C3CCC(=O)NC3=O)C4=O)CC2)n1 (stereo not shown) [Compound I-217, 6-((4-(2-(2,6-dioxopiperidin-3-yl)-1-oxoisoindolin-5-yl)piperidin-1-yl)methyl)picolinonitrile]	
> 30000	60	4		N#CCOc1ccc(CN2CCC(c3ccc4c(c3)CN(C3CCC(=O)NC3=O)C4=O)CC2)cc1 (stereo not shown) [Compound I-218, 2-(4-((4-(2-(2,6-dioxopiperidin-3-yl)-1-oxoisoindolin-5-yl)piperidin-1-yl)methyl)phenoxy)acetonitrile]	
> 25000	80	11	decreased	O=C1CCC(N2Cc3cc(C4CCN(Cc5ccc6[nH]ncc6c5)CC4)ccc3C2=O)C(=O)N1 (stereo not shown) [Compound I-219, 3-(5-(1-((1H-indazol-5-yl)methyl)piperidin-4-yl)-1-oxoisoindolin-2-yl)piperidine-2,6-dione]	
> 50000	30	36		Cc1ccc2nc(CN3CCC(c4ccc5c(c4)CN(C4CCC(=O)NC4=O)C5=O)CC3)cc(=O)n2c1 (stereo not shown) [Compound I-221, 3-(5-(1-((7-methyl-4-oxo-4H-pyrido[1,2-a]pyrimidin-2-yl)methyl)piperidin-4-yl)-1-oxoisoindolin-2-yl)piperidine-2,6-dione]	
> 50000	0	> 50000		O=C1CCC(N2Cc3cc(C4CCN(C(c5ccccc5)C(F)(F)F)CC4)ccc3C2=O)C(=O)N1 (stereo not shown) [Compound I-224, 3-(1-oxo-5-(1-(2,2,2-trifluoro-1-phenylethyl)piperidin-4-yl)isoindolin-2-yl)piperidine-2,6-dione HC(O)OH salt]	
> 25000	50	10		O=C1CCC(N2Cc3cc(C4CCN(Cc5nccc6ccccc56)CC4)ccc3C2=O)C(=O)N1 (stereo not shown) [Compound I-226, 3-(5-(1-(isoquinolin-1-ylmethyl)piperidin-4-yl)-1-oxoisoindolin-2-yl)piperidine-2,6-dione]	
> 30000	60	4		COC1CCN(c2ccc(CN3CCC(c4ccc5c(c4)CN(C4CCC(=O)NC4=O)C5=O)CC3)cc2)CC1 (stereo not shown) [Compound I-227, 3-(5-(1-(4-(4-methoxypiperidin-1-yl)benzyl)piperidin-4-yl)-1-oxoisoindolin-2-yl)piperidine-2,6-dione]	
> 30000	70	10		CC(C)Sc1ccc(CN2CCC(c3ccc4c(c3)CN(C3CCC(=O)NC3=O)C4=O)CC2)cc1 (stereo not shown) [Compound I-228, 3-(5-(1-(4-(isopropylthio)benzyl)piperidin-4-yl)-1-oxoisoindolin-2-yl)piperidine-2,6-dione]	
> 30000	60	250		O=C(O)Cc1ccc(CN2CCC(c3ccc4c(c3)CN(C3CCC(=O)NC3=O)C4=O)CC2)cc1 (stereo not shown) [Compound I-231, 2-(4-((4-(2-(2,6-dioxopiperidin-3-yl)-1-oxoisoindolin-5-yl)piperidin-1-yl)methyl)phenyl)acetic acid]	

SMILES	DC50 (IKZF1) [nM]	inhibition at 10 µM (IKZF2; [1]) [%]	DC50 (IKZF2; [2]) [nM]	IKZF2 protein levels as compared to the control (DMSO) (IKZF2; Prolabel assay in HEK293GT cells, bar graph)	inhibition at 10 µM (IKZF2; [3]) [%]
O=C1CCC(N2Cc3cc(C4=CCN(Cc5ccccc5)CC4)ccc3C2=O)C(=O)N1 (stereo not shown) [Compound I-172, 3-(5-(1-benzyl-1,2,3,6-tetrahydropyridin-4-yl)-1-oxoisoindolin-2-yl)piperidine-2,6-dione]	250		103		60
Cc1cccc(CN2CCC(c3ccc4c(c3)CN(C3CCC(=O)NC3=O)C4=O)CC2)c1 (stereo not shown) [Compound I-173, 3-(5-(1-(3-methylbenzyl)piperidin-4-yl)-1-oxoisoindolin-2-yl)piperidine-2,6-dione]	> 30000		74		65
